Broadly, the IC50 is the concentration needed to halve the response being measured. Read a low IC50 as higher potency.

Where only a bound is given, the exact number is not on record here.

This is an account of results in patent US12435092B2, “Substituted imidazo[1,2-A]quinazolines as inhibitors of PARG” (858 Therapeutics, Inc., priority 2022, dated 2025).

The assay concerns the target T1, cellular PARG (Homo sapiens, UniProt Q86W56).
T1 construct: endogenous in cells; host or cells: HeLa
As to the kind of experiment: Nuclear PAR accumulation assay (immunofluorescence high-content imaging). Type of assay: cell-based. To be noted: HeLa cells, 1 hour compound treatment then MMS 50 μg/mL for an additional hour. The procedure:
Compound IC50 values for inhibition of cellular PARG were determined using an immunofluorescence high-content imaging assay for nuclear PAR accumulation. HeLa cells were plated at 15,000 cells/well in a 96-well plate the day before compound treatment and then treated with varying concentrations of test compound and incubated for 1 hour at 37° C.+5% CO2. Following test compound treatment, methylmethane sulfonate (MMS) was added to a final concentration of 50 μg/mL and the cells were incubated for an additional hour. Following treatment, the cells were fixed with ice cold 95% methanol and the plates sealed and placed at −20° C. for 15 minutes. The cells were then washed once with phosphate buffered saline (PBS) and permeabilized with 0.1% Triton-X 100 for 20 minutes at room temperature. The cells were again washed once with PBS and incubated with an anti-poly-ADP ribose (PAR) monoclonal antibody (Millipore Part #AM80 clone 10H) diluted 1:1,000 in 5% fetal bovine serum +0.1% Tween-20+PBS overnight at 4° C. The cells were then washed three times with PBS before incubation with a fluorescently conjugated goat anti-mouse antibody (Invitrogen A32723) diluted 1:500 in 5% FBS+0.1% Tween-20+PBS for 1 hour at room temperature. The cells were again washed three times with PBS and the nuclei labeled by incubating with 1 μg/mL DAPI (4′,6-diamidino-2-phenylindole). Nuclear PAR accumulation was evaluated using high-content fluorescence microscopy. Four fields for each well were acquired at 20× magnification resulting in at least 1,000 cells analyzed per well. Using high-content software (CellReporterXpress) the nuclei were detected and segmented using the DAPI channel and the fluorescence intensity of the PAR-Alexa 488 channel was quantified within the nuclei regions. Both the average intensity per nucleus and percent PAR positive cells were quantified. Percent PAR positive cells were identified by having greater anti-PAR labeling above the threshold set with vehicle DMSO treated control cells. Percent inhibition of PARG by test compounds was calculated by normalizing the data to the 0.1% DMSO and reference compound control values, which represent 0% and 100% inhibition of enzymatic activity, respectively. Concentration-response-curves and IC50 values were generated using four parameter logistic curve fit software.

T1 sequence (Q86W56 whole entry): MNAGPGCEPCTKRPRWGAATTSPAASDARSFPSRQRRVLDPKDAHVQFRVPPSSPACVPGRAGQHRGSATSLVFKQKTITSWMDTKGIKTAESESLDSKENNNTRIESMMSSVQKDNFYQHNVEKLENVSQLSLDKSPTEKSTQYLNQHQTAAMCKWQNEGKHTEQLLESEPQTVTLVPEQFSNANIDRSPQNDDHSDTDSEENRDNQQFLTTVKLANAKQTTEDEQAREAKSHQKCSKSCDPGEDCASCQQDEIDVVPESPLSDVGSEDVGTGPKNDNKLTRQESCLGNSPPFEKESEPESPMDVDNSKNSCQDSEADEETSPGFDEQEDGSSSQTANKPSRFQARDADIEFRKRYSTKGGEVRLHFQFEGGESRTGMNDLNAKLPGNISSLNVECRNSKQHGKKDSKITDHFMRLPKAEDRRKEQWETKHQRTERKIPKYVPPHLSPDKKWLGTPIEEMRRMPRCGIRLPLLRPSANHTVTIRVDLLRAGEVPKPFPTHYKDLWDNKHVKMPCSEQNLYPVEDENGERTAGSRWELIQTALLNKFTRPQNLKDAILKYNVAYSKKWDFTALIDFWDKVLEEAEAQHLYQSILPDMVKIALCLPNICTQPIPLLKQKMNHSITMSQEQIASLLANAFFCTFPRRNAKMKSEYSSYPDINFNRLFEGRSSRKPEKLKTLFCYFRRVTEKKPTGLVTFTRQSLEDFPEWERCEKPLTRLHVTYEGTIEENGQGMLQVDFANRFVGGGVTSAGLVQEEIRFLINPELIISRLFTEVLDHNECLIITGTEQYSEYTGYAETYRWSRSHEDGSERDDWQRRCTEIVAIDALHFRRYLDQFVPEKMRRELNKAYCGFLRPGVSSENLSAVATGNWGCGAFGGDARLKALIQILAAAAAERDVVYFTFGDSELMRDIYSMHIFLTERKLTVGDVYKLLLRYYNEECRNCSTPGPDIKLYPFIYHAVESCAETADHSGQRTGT

Molecule `C[C@@H]1CN=C2N(CC3CC(=O)N(C)C3)C(=O)c3cc(S(=O)(=O)NC4(C)CC4)ccc3N21` (single isomer, unassigned) [Example 123] showed an IC50 of 1000 to 10000 nM.
The figure for `CC(c1cnn(C)c1)N1C(=O)c2cc(S(=O)(=O)NC3(C)CC3)ccc2N2C1=NC[C@H]2C` (single isomer, unassigned) [Example 125] is 1000 to 10000 nM.
`CC(c1cnn(C)c1)N1C(=O)c2cc(S(=O)(=O)NC3(C)CC3)ccc2N2C1=NC[C@H]2C` (single isomer, unassigned) [Example 126] had an IC50 of 1000 to 10000 nM.
Take `C[C@@H]1CN=C2N(Cc3cnn(CCO)c3)C(=O)c3cc(S(=O)(=O)NC4(C)CC4)ccc3N21` [Example 1, (R)-4-((1-(2-hydroxyethyl)-1H-pyrazol-4-yl)methyl)-1-methyl-N-(1-methylcyclopropyl)-5-oxo-1,2,4,5-tetrahydroimidazo[1,2-a]quinazoline-7-sulfonamide]: the IC50 fell in the range of 100 to 1000 nM.
Take `C[C@@H]1CN=C2N(Cc3cnn(C)c3)C(=O)c3cc(S(=O)(=O)NC4(C#N)CC4)ccc3N21` [Example 2, (R)—N-(1-cyanocyclopropyl)-1-methyl-4-((1-methyl-1H-pyrazol-4-yl)methyl)-5-oxo-1,2,4,5-tetrahydroimidazo[1,2-a]quinazoline-7-sulfonamide]: the IC50 lay in the range of 100 to 1000 nM.
The figure for `C[C@@H]1CN=C2N(CC3CC3)C(=O)c3cc(S(=O)(=O)NC4(C)CC4)ccc3N21` [Example 3, (R)-4-(cyclopropylmethyl)-1-methyl-N-(1-methylcyclopropyl)-5-oxo-1,2,4,5-tetrahydroimidazo[1,2-a]quinazoline-7-sulfonamide] is 100 to 1000 nM.
`C[C@@H]1CN=C2N(Cc3cccnc3)C(=O)c3cc(S(=O)(=O)NC4(C)CC4)ccc3N21` [Example 4, (R)-1-methyl-N-(1-methylcyclopropyl)-5-oxo-4-(pyridin-3-ylmethyl)-1,2,4,5-tetrahydroimidazo[1,2-a]quinazoline-7-sulfonamide] displayed an IC50 of 100 to 1000 nM.
The figure for `Cc1cc(CN2C(=O)c3cc(S(=O)(=O)NC4(C)CC4)ccc3N3C2=NC[C@H]3C)n[nH]1` [Example 5, (R)-1-methyl-4-((5-methyl-1H-pyrazol-3-yl)methyl)-N-(1-methylcyclopropyl)-5-oxo-1,2,4,5-tetrahydroimidazo[1,2-a]quinazoline-7-sulfonamide] is 100 to 1000 nM.
On to `C[C@@H]1CN=C2N(Cc3cn[nH]c3)C(=O)c3cc(S(=O)(=O)NC4(C)CC4)ccc3N21` [Example 6, (R)-4-((1H-pyrazol-4-yl)methyl)-1-methyl-N-(1-methylcyclopropyl)-5-oxo-1,2,4,5-tetrahydroimidazo[1,2-a]quinazoline-7-sulfonamide], for which the IC50 lay in the range of 100 to 1000 nM.
The figure for `Cc1noc(C)c1CN1C(=O)c2cc(S(=O)(=O)NC3(C)CC3)ccc2N2C1=NC[C@H]2C` [Example 8, (R)-4-((3,5-dimethylisoxazol-4-yl)methyl)-1-methyl-N-(1-methylcyclopropyl)-5-oxo-1,2,4,5-tetrahydroimidazo[1,2-a]quinazoline-7-sulfonamide] is at most 100 nM; for `C#C[C@H]1CN=C2N(Cc3cc(C)no3)C(=O)c3cc(S(=O)(=O)NC4(C)CC4)ccc3N21` [Example 9, (S)-1-ethynyl-N-(1-methylcyclopropyl)-4-((3-methylisoxazol-5-yl)methyl)-5-oxo-1,2,4,5-tetrahydroimidazo[1,2-a]quinazoline-7-sulfonamide] it is 100 to 1000 nM.
The figure for `C#C[C@@H]1CN=C2N(Cc3cc(C)no3)C(=O)c3cc(S(=O)(=O)NC4(C)CC4)ccc3N21` [Example 10, (R)-1-ethynyl-N-(1-methylcyclopropyl)-4-((3-methylisoxazol-5-yl)methyl)-5-oxo-1,2,4,5-tetrahydroimidazo[1,2-a]quinazoline-7-sulfonamide] is at most 100 nM; for `Cc1cc(CN2C(=O)c3cc(S(=O)(=O)NC4(C)CC4)ccc3N3C2=NC[C@@H]3C(C)C)on1` [Example 11, (S)-1-isopropyl-N-(1-methylcyclopropyl)-4-((3-methylisoxazol-5-yl)methyl)-5-oxo-1,2,4,5-tetrahydroimidazo[1,2-a]quinazoline-7-sulfonamide] it is over 10000 nM; for `Cc1cc(CN2C(=O)c3cc(S(=O)(=O)NC4(C)CC4)ccc3N3C2=NC[C@H]3C(C)C)on1` [Example 12, (R)-1-isopropyl-N-(1-methylcyclopropyl)-4-((3-methylisoxazol-5-yl)methyl)-5-oxo-1,2,4,5-tetrahydroimidazo[1,2-a]quinazoline-7-sulfonamide] it is 100 to 1000 nM.
Take `CC[C@H]1CN=C2N(Cc3c(C)noc3C)C(=O)c3cc(S(=O)(=O)NC4(C)CC4)ccc3N21` [Example 13, (S)-4-((3,5-dimethylisoxazol-4-yl)methyl)-1-ethyl-N-(1-methylcyclopropyl)-5-oxo-1,2,4,5-tetrahydroimidazo[1,2-a]quinazoline-7-sulfonamide]: the IC50 fell in the range of 1000 to 10000 nM.
`CC[C@@H]1CN=C2N(Cc3c(C)noc3C)C(=O)c3cc(S(=O)(=O)NC4(C)CC4)ccc3N21` [Example 14, (R)-4-((3,5-dimethylisoxazol-4-yl)methyl)-1-ethyl-N-(1-methylcyclopropyl)-5-oxo-1,2,4,5-tetrahydroimidazo[1,2-a]quinazoline-7-sulfonamide] had an IC50 of at most 100 nM.
In turn, `C#C[C@H]1CN=C2N(Cc3cnc(C)s3)C(=O)c3cc(S(=O)(=O)NC4(C)CC4)ccc3N21` [Example 15, (S)-1-ethynyl-N-(1-methylcyclopropyl)-4-((2-methylthiazol-5-yl)methyl)-5-oxo-1,2,4,5-tetrahydroimidazo[1,2-a]quinazoline-7-sulfonamide] registered an IC50 of 100 to 1000 nM.
The figure for `C#C[C@@H]1CN=C2N(Cc3cnc(C)s3)C(=O)c3cc(S(=O)(=O)NC4(C)CC4)ccc3N21` [Example 16, (R)-1-ethynyl-N-(1-methylcyclopropyl)-4-((2-methylthiazol-5-yl)methyl)-5-oxo-1,2,4,5-tetrahydroimidazo[1,2-a]quinazoline-7-sulfonamide] is at most 100 nM; for `Cc1ncc(CN2C(=O)c3cc(S(=O)(=O)NC4(C)CC4)ccc3N3C2=NC[C@@H]3C2CC2)s1` [Example 17, (S)-1-cyclopropyl-N-(1-methylcyclopropyl)-4-((2-methylthiazol-5-yl)methyl)-5-oxo-1,2,4,5-tetrahydroimidazo[1,2-a]quinazoline-7-sulfonamide] it is 100 to 1000 nM.
To `Cc1ncc(CN2C(=O)c3cc(S(=O)(=O)NC4(C)CC4)ccc3N3C2=NC[C@H]3C2CC2)s1` [Example 18, (R)-1-cyclopropyl-N-(1-methylcyclopropyl)-4-((2-methylthiazol-5-yl)methyl)-5-oxo-1,2,4,5-tetrahydroimidazo[1,2-a]quinazoline-7-sulfonamide] belongs at most 100 nM.
The figure for `Cc1ncc(CN2C(=O)c3cc(S(=O)(=O)NC4(C)CC4)ccc3N3C2=NC[C@@H]3C(C)C)s1` [Example 19, (S)-1-isopropyl-N-(1-methylcyclopropyl)-4-((2-methylthiazol-5-yl)methyl)-5-oxo-1,2,4,5-tetrahydroimidazo[1,2-a]quinazoline-7-sulfonamide] is over 10000 nM; for `Cc1ncc(CN2C(=O)c3cc(S(=O)(=O)NC4(C)CC4)ccc3N3C2=NC[C@H]3C(C)C)s1` [Example 20, (R)-1-isopropyl-N-(1-methylcyclopropyl)-4-((2-methylthiazol-5-yl)methyl)-5-oxo-1,2,4,5-tetrahydroimidazo[1,2-a]quinazoline-7-sulfonamide] it is at most 100 nM.
In turn, `Cc1cc(CN2C(=O)c3cc(S(=O)(=O)NC4(C)CC4)ccc3N3C2=NC[C@@H]3C2CC2)on1` [Example 21, (S)-1-cyclopropyl-N-(1-methylcyclopropyl)-4-((3-methylisoxazol-5-yl)methyl)-5-oxo-1,2,4,5-tetrahydroimidazo[1,2-a]quinazoline-7-sulfonamide] had an IC50 of 100 to 1000 nM.
To `Cc1cc(CN2C(=O)c3cc(S(=O)(=O)NC4(C)CC4)ccc3N3C2=NC[C@H]3C2CC2)on1` [Example 22, (R)-1-cyclopropyl-N-(1-methylcyclopropyl)-4-((3-methylisoxazol-5-yl)methyl)-5-oxo-1,2,4,5-tetrahydroimidazo[1,2-a]quinazoline-7-sulfonamide] belongs at most 100 nM; to `CC[C@H]1CN=C2N(Cc3cc(C)no3)C(=O)c3cc(S(=O)(=O)NC4(C)CC4)ccc3N21` [Example 23, (S)-1-ethyl-N-(1-methylcyclopropyl)-4-((3-methylisoxazol-5-yl)methyl)-5-oxo-1,2,4,5-tetrahydroimidazo[1,2-a]quinazoline-7-sulfonamide], 1000 to 10000 nM; to `CC[C@@H]1CN=C2N(Cc3cc(C)no3)C(=O)c3cc(S(=O)(=O)NC4(C)CC4)ccc3N21` [Example 24, (R)-1-ethyl-N-(1-methylcyclopropyl)-4-((3-methylisoxazol-5-yl)methyl)-5-oxo-1,2,4,5-tetrahydroimidazo[1,2-a]quinazoline-7-sulfonamide], at most 100 nM.
